Test results: ChEMBL document CHEMBL4680246, “Design, synthesis and biological evaluation of novel O-carbamoyl ferulamide derivatives as multi-target-directed ligands for the treatment of Alzheimer's disease” (Eur J Med Chem, 2020); call rule not given here

Columns and labels:
[1] = Drug uptake in iv dosed mouse hypothalamus measured after 60 mins by PET imaging analysis; type: ADME, organism-based; details: in vivo, 1 h
[2] = Drug uptake in iv dosed mouse brain measured at 2 mins by PET imaging analysis; type: ADME, organism-based; details: in vivo
[3] = Drug uptake in iv dosed mouse spleen measured after 60 mins by PET imaging analysis; type: ADME, organism-based; details: in vivo, 1 h
[4] = Drug uptake in iv dosed mouse hippocampus measured after 60 mins by PET imaging analysis; type: ADME, organism-based; details: in vivo, 1 h
[5] = Drug uptake in iv dosed mouse brainstem measured after 60 mins by PET imaging analysis; type: ADME, organism-based; details: in vivo, 1 h
[6] = Drug uptake in iv dosed mouse striatum measured after 60 mins in presence of (E)-4-(3-(3,4-dihydroisoquinolin-2(1H)-yl)-3-oxoprop-1-en-1-yl)-2-methoxyphenyl ethyl(methyl)carbamate by PET imaging analysis; type: ADME, organism-based; details: in vivo
[7] = Drug uptake in iv dosed mouse amygdala measured after 60 mins by PET imaging analysis; type: ADME, organism-based; details: in vivo, 1 h
[8] = Drug uptake in iv dosed mouse brainstem measured after 60 mins in presence of (E)-4-(3-(3,4-dihydroisoquinolin-2(1H)-yl)-3-oxoprop-1-en-1-yl)-2-methoxyphenyl ethyl(methyl)carbamate by PET imaging analysis; type: ADME, organism-based; details: in vivo
[9] = Drug uptake in iv dosed mouse striatum measured after 60 mins by PET imaging analysis; type: ADME, organism-based; details: in vivo, 1 h
[10] = Drug uptake in iv dosed mouse cortex measured after 60 mins in presence of rivastigmine by PET imaging analysis; type: ADME, organism-based; details: in vivo, 1 h
[11] = Drug uptake in iv dosed mouse brain measured up to 60 mins in presence of rivastigmine by PET imaging analysis; type: ADME, organism-based; details: in vivo, 1 h
[12] = Drug uptake in iv dosed mouse striatum measured after 60 mins in presence of rivastigmine by PET imaging analysis; type: ADME, organism-based; details: in vivo, 1 h
[13] = Drug uptake in iv dosed mouse thalamus measured after 60 mins in presence of (E)-4-(3-(3,4-dihydroisoquinolin-2(1H)-yl)-3-oxoprop-1-en-1-yl)-2-methoxyphenyl ethyl(methyl)carbamate by PET imaging analysis; type: ADME, organism-based; details: in vivo
[14] = Drug uptake in iv dosed mouse cerebellum measured after 60 mins by PET imaging analysis; type: ADME, organism-based; details: in vivo, 1 h
[15] = Drug uptake in iv dosed mouse central gray substance of midbrain measured after 60 mins by PET imaging analysis; type: ADME, organism-based; details: in vivo, 1 h
[16] = Drug uptake in iv dosed mouse heart measured after 5 mins by PET imaging analysis; type: ADME, organism-based; details: in vivo
[17] = Drug uptake in iv dosed mouse amygdala measured after 60 mins in presence of rivastigmine by PET imaging analysis; type: ADME, organism-based; details: in vivo, 1 h
[18] = Drug uptake in iv dosed mouse liver measured after 30 mins by PET imaging analysis; type: ADME, organism-based; details: in vivo, 0.5 h
[19] = Drug uptake in iv dosed mouse hypothalamus measured after 60 mins in presence of (E)-4-(3-(3,4-dihydroisoquinolin-2(1H)-yl)-3-oxoprop-1-en-1-yl)-2-methoxyphenyl ethyl(methyl)carbamate by PET imaging analysis; type: ADME, organism-based; details: in vivo
[20] = Drug uptake in iv dosed mouse brain measured up to 60 mins in presence of (E)-4-(3-(3,4-dihydroisoquinolin-2(1H)-yl)-3-oxoprop-1-en-1-yl)-2-methoxyphenyl ethyl(methyl)carbamate by PET imaging analysis; type: ADME, organism-based; details: in vivo
[21] = Drug uptake in iv dosed mouse thalamus measured after 60 mins by PET imaging analysis; type: ADME, organism-based; details: in vivo, 1 h
[22] = Drug uptake in iv dosed mouse hypothalamus measured after 60 mins in presence of rivastigmine by PET imaging analysis; type: ADME, organism-based; details: in vivo, 1 h
[23] = Drug uptake in iv dosed mouse central gray substance of midbrain measured after 60 mins in presence of (E)-4-(3-(3,4-dihydroisoquinolin-2(1H)-yl)-3-oxoprop-1-en-1-yl)-2-methoxyphenyl ethyl(methyl)carbamate by PET imaging analysis; type: ADME, organism-based; details: in vivo
[24] = Drug uptake in iv dosed mouse cortex measured after 60 mins in presence of (E)-4-(3-(3,4-dihydroisoquinolin-2(1H)-yl)-3-oxoprop-1-en-1-yl)-2-methoxyphenyl ethyl(methyl)carbamate by PET imaging analysis; type: ADME, organism-based; details: in vivo
[25] = Drug uptake in iv dosed mouse brain measured after 5 mins by PET imaging analysis; type: ADME, organism-based; details: in vivo
[26] = Drug uptake in iv dosed mouse thalamus measured after 60 mins in presence of rivastigmine by PET imaging analysis; type: ADME, organism-based; details: in vivo, 1 h
[27] = Drug uptake in iv dosed mouse cortex measured after 60 mins by PET imaging analysis; type: ADME, organism-based; details: in vivo, 1 h
[28] = Drug uptake in iv dosed mouse hippocampus measured after 60 mins in presence of (E)-4-(3-(3,4-dihydroisoquinolin-2(1H)-yl)-3-oxoprop-1-en-1-yl)-2-methoxyphenyl ethyl(methyl)carbamate by PET imaging analysis; type: ADME, organism-based; details: in vivo
[29] = Drug uptake in iv dosed mouse cerebellum measured after 60 mins in presence of (E)-4-(3-(3,4-dihydroisoquinolin-2(1H)-yl)-3-oxoprop-1-en-1-yl)-2-methoxyphenyl ethyl(methyl)carbamate by PET imaging analysis; type: ADME, organism-based; details: in vivo
[30] = Drug uptake in iv dosed mouse cerebellum measured after 60 mins in presence of rivastigmine by PET imaging analysis; type: ADME, organism-based; details: in vivo, 1 h
[31] = Drug uptake in iv dosed mouse brain measured after 60 mins by PET imaging analysis; type: ADME, organism-based; details: in vivo, 1 h
[32] = Drug uptake in iv dosed mouse amygdala measured after 60 mins in presence of (E)-4-(3-(3,4-dihydroisoquinolin-2(1H)-yl)-3-oxoprop-1-en-1-yl)-2-methoxyphenyl ethyl(methyl)carbamate by PET imaging analysis; type: ADME, organism-based; details: in vivo
[33] = Drug uptake in iv dosed mouse brainstem measured after 60 mins in presence of rivastigmine by PET imaging analysis; type: ADME, organism-based; details: in vivo, 1 h
[34] = Drug uptake in iv dosed mouse central gray substance of midbrain measured after 60 mins in presence of rivastigmine by PET imaging analysis; type: ADME, organism-based; details: in vivo, 1 h
[35] = Drug uptake in iv dosed mouse lung measured after 5 mins by PET imaging analysis; type: ADME, organism-based; details: in vivo
[36] = Drug uptake in iv dosed mouse hippocampus measured after 60 mins in presence of rivastigmine by PET imaging analysis; type: ADME, organism-based; details: in vivo, 1 h
Cholinesterase [37] = biological target: T1, Cholinesterase (Homo sapiens, UniProt P06276); assay: Pseudo-irreversible inhibition of human serum BuChE assessed as residual activity at 0.1 times IC50 using acetylcholine iodide as substrate measured 240 mins post dilution by Ellman's method relative to control
T1 sequence (P06276 whole entry): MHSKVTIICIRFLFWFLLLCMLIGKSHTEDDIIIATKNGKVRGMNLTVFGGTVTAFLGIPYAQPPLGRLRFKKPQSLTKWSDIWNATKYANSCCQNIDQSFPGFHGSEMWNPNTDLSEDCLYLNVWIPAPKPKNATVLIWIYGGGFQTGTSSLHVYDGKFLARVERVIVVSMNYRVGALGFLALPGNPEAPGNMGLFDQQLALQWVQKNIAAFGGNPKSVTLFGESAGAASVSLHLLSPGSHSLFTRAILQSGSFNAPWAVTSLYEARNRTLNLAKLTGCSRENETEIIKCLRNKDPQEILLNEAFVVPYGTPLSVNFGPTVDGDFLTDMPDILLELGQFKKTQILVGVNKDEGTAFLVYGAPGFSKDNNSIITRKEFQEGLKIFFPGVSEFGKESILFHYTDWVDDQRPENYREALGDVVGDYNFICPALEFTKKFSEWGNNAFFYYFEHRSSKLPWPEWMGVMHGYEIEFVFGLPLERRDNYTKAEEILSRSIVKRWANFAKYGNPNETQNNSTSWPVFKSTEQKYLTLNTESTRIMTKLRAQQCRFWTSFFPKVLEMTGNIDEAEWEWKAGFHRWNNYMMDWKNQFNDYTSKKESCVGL

Cholinesterase [38] = biological target: T1, Cholinesterase; assay: Inhibition of human serum BuChE assessed as residual activity at IC50 using acetylcholine iodide as substrate measured by Ellman's method relative to control
Cholinesterase [39] = biological target: T1, Cholinesterase; assay: Inhibition of human serum BuChE assessed as residual activity at 0.1 times IC50 using acetylcholine iodide as substrate measured after dilution by Ellman's method relative to control
Mus musculus [40] = assay: Improvement in cognitive impairment in scopolamine-induced mouse model of amnesia assessed as change in spontaneous alteration at 6 mg/kg by Y-maze test (reference value: 40.8%); type: functional
Mus musculus [41] = assay: Improvement in brain cholinergic activity in scopolamine-induced mouse model of amnesia assessed as change in ChAT vitality at 6 mg/kg (reference value: 28.8 U/g); type: functional
[42] = Effect on spontaneous alteration behavior in mouse assessed as change in total arm entry at 6 mg/kg by Y-maze test; type: ADME, organism-based; details: in vivo

Structure (SMILES): CCN(C)C(=O)Oc1ccc(/C=C/C(=O)N2CCc3ccccc3C2)cc1O[11CH3]
- Drug uptake [1]: Active
- Drug uptake [2]: 8.76 %ID/cc
- Drug uptake [3]: 11.49 %ID/cc
- Drug uptake [4]: -9 %ID/cc
- Drug uptake [5]: Active
- Drug uptake [6]: Not Active
- Drug uptake [7]: Active
- Drug uptake [8]: Not Active
- Drug uptake [9]: -9 %ID/cc
- Drug uptake [10]: Not Active
- Drug uptake [11]: Not Active
- Drug uptake [12]: Not Active
- Drug uptake [13]: Not Active
- Drug uptake [14]: Active
- Drug uptake [15]: Active
- Drug uptake [16]: 11.8 %ID/cc
- Drug uptake [17]: Not Active
- Drug uptake [18]: 14.46 %ID/cc
- Drug uptake [19]: Not Active
- Drug uptake [20]: Not Active
- Drug uptake [21]: Active
- Drug uptake [22]: Not Active
- Drug uptake [23]: Not Active
- Drug uptake [24]: Not Active
- Drug uptake [25]: 6.21 %ID/cc
- Drug uptake [26]: Not Active
- Drug uptake [27]: Active
- Drug uptake [28]: Not Active
- Drug uptake [29]: Not Active
- Drug uptake [30]: Not Active
- Drug uptake [31]: Active
- Drug uptake [32]: Not Active
- Drug uptake [33]: Not Active
- Drug uptake [34]: Not Active
- Drug uptake [35]: 4.68 %ID/cc
- Drug uptake [36]: Not Active

Structure (SMILES): CCN(C)C(=O)Oc1cccc([C@H](C)N(C)C)c1 [RIVASTIGMINE]
- Activity (Cholinesterase [37]): 73.3%
- Activity (Cholinesterase [38]): 48.3%
- Activity (Cholinesterase [39]): 53.2%
- Activity (Mus musculus [40]): 60.2%
- Activity (Mus musculus [41]): 55.3 U/g
- Activity [42]: Non-Toxic
